Experimental data from patent publication US8188055B2, “Inactivators of O6-alkylguanine-DNA alkyltransferase” (The United States of America, as represented by the …, priority 2007, dated 2012).
Like-named read-outs stand apart in the source and are kept apart here.

Columns and labels:
[1] = target: T1, human alkyltransferase (Homo sapiens, UniProt P16455); experiment: Inactivation of purified recombinant human alkyltransferase in vitro; type: biochemical; conditions: for inactivation of alkyltransferase compared with parent compound: comparison in words
T1 sequence (P16455 1-207): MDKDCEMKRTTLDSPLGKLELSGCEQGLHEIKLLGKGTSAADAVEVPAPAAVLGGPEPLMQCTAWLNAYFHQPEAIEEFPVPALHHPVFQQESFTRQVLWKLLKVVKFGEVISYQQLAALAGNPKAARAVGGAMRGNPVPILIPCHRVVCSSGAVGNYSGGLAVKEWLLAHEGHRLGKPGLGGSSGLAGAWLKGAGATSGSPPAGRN
Experimental: ED50 values for the inactivation of purified human alkyltransferase in vitro are obtained as previously described (Nelson et al., J. Med. Chem. 2004, 47, 3887-3891 and Pegg et al., Biochem. Pharmacol. 1997, 53, 1559-1564). Purified recombinant human alkyltransferase is incubated with different concentrations of prodrugs in 0.5 mL of reaction buffer (50 mM Tris-HCl, pH 7.6, 0.1 mM EDTA, 5.0 mM dithiothreitol) containing 50 μg of hemocyanin or 10 μg calf thymus DNA for 30 min at 37° C.

[2] = Release of folate on incubation in neutral solution (ester stability); type: physicochemical; conditions: incubated in neutral solution
[3] = system: human tumor cell extracts; experiment: Release of folate from esters by human tumor cell extracts; type: in vitro ADME; conditions: 200 μM ester, 2 mg lysate protein, pH 7.4, 37° C
Experimental: Cells are trypsinized, washed with Hank's balanced salt solution, counted and pelleted. On ice, the cell pellets are resuspended in 50 mM sodium phosphate, 5 mM DTT, pH 7.4 at a concentration of 10^8 cells/ml and disrupted by sonication. The sonicated cells are centrifuged at 12,000×g for 10 min and the supernatant is removed. Complete mini protease inhibitor (Roche, Mannheim Germany) is added as directed by the supplier. Lysate total protein concentration is determined, and the lysates are frozen until used at −20° C. Reactions (600 μL), containing one of the ester substrates (200 μM) and 2 mg of lysate protein in 50 mM phosphate buffer (pH 7.4) are incubated at 37° C. At various times 50 μL, are removed for analysis by HPLC. The amount of folic acid liberated is used to determine the extent of ester hydrolysis.
The rate of release of folate is about 2.2% per day from 1; 3.2% per day from 2; and 0.9% per day from 3. […] The extent of conversion to folate by human tumor cell extracts can vary slightly according to the cell type with MCF-7 cells showing the highest rate of conversion.

[4] = system: HT29 cells; experiment: Sensitization of HT29 cells to killing by BCNU, colony-forming assay; type: cell-based; conditions: RPMI medium, drug 2 h prior to 40 μM BCNU for 2 h
Experimental: KB, HT29 and A549 cells are grown in RPMI 1640 medium or in RPMI medium lacking folate in the presence of 10% fetal bovine serum. The effect of alkyltransferase inactivators on the sensitivity of cells to BCNU is determined using a colony-forming assay (Wei et al., J. Med. Chem. 2005, 48, 256-261; Nelson et al., J. Med. Chem. 2004, 47, 3887-3891; Chae et al., J. Med. Chem. 1994, 37, 342-347; and Dolan et al., Proc. Natl. Acad. Sci. U.S.A. 1990, 87, 5368-5372). Cells are plated at a density of 10^6 in 25 cm^2 flasks and 24 h later are incubated with different concentrations of potential inhibitors for 2-8 h as indicated before exposure to 20 or 40 μM BCNU for 2 h as previously described (Wei et al., J. Med. Chem. 2005, 48, 256-261; Nelson et al., J. Med. Chem. 2004, 47, 3887-3891). After 2 h, the medium is replaced with fresh medium containing the drug but no BCNU and the cells are left to grow for an additional 16-18 h. The cells are then replated at densities of 250-1000 cells per 25 cm^2 flask and grown for 8 days until discrete colonies have formed. The colonies are washed with 0.9% saline solution, stained with 0.5% crystal violet in ethanol, and counted.

[5] = target: T1, human alkyltransferase; conditions: previously published, read-out: ED50 for inactivation of alkyltransferase, cited from earlier work
[6] = +DNA (10 μg calf thymus DNA), 30 min at 37° C, read-out: ED50 for inactivation of alkyltransferase
[7] = absence of DNA, read-out: ED50 value in the absence of DNA

Compound | EC50 [1, 6] | ED50 lower than O^6-benzylguanine ([1]; absence of DNA) | ED50 lower than the parent O^6-benzyl-2′-deoxyguanosine ([1]; absence of DNA) | EC50 [1, 7] | inactivation of alkyltransferase compared with parent compound [1] | rate of release of folate [2] | release of folate by extracts from human tumor cells [3] | sensitization of HT29 cells to killing by BCNU [4] | increase of ED50 when DNA is present ([1]; +DNA versus −DNA) | EC50 ([1]; −DNA (hemocyanin), 30 min at 37° C, read-out: ED50 for inactivation of alkyltransferase) | EC50 ([5]; +DNA) | EC50 ([5]; −DNA)
Nc1nc(OCc2ccccc2)c2ncn([C@H]3CC(OC(=O)CC[C@H](NC(=O)c4ccc(NCc5cnc6nc(N)[nH]c(=O)c6n5)cc4)C(=O)O)[C@@H](CO)O3)c2n1 (stereo partly shown) [Compound 1, O^6-Benzyl-3′-O-[γ-folyl]-2′-deoxyguanosine] | 680 nM | 10 times | 100 times | 16 nM | more active than O^6-benzyl-2′-deoxyguanosine itself | about 2.2 % per day | able to release folate | able to sensitize HT29 cells to killing by BCNU |  |  |  | 
Nc1nc(OCc2ccccc2)c2ncn([C@H]3CC(O)[C@@H](COC(=O)CC[C@H](NC(=O)c4ccc(NCc5cnc6nc(N)[nH]c(=O)c6n5)cc4)C(=O)O)O3)c2n1 (stereo partly shown) [Compound 2, O^6-Benzyl-5′-O-[γ-folyl]-2′-deoxyguanosine] | 3060 ± 180 nM |  |  | 640 nM | more active than O^6-benzyl-2′-deoxyguanosine itself | ~3.2 % per day | able to release folate | able to sensitize HT29 cells to killing by BCNU | 5 fold |  |  | 
Nc1nc(OCc2ccc(COC(=O)CC[C@H](NC(=O)c3ccc(NCc4cnc5nc(N)[nH]c(=O)c5n4)cc3)C(=O)O)cc2)c2nc[nH]c2n1 [Compound 3, O^6-[4-[(γ-folyl)-oxymethyl]benzyl]guanine] | 240 nM |  |  |  | slightly less effective than the free base parent | ~0.9 % per day | able to release folate |  |  | 700 nM |  | 
Nc1nc(OCc2ccccc2)c2ncn([C@H]3C[C@H](O)[C@@H](CO)O3)c2n1 [O^6-benzyl-2′-deoxyguanosine] |  |  |  |  |  |  |  |  |  |  | 40000 nM | 2000 nM
